From US7879848B2, “Dipeptidyl Peptidase-IV inhibiting compounds, method of preparing the same, and pharmaceutical compositions containing the same as an active agent” (LG Life Sciences, Ltd., priority 2005, dated 2011)

Each compound was assayed against T1, Dipeptidyl Peptidase-IV (DPP-IV) (Homo sapiens, UniProt P27487) (assay: Measurement of DPP-IV Activity-Inhibiting Ability (fluorescent substrate Ac-Gly-Pro-AFC)). Settings: 25° C., 50 mmol HEPES (pH 7.4), DP-IV 7.1 nM, enzyme reaction for 1 hour.
T1 construct: made in house
T1 sequence (P27487 whole entry): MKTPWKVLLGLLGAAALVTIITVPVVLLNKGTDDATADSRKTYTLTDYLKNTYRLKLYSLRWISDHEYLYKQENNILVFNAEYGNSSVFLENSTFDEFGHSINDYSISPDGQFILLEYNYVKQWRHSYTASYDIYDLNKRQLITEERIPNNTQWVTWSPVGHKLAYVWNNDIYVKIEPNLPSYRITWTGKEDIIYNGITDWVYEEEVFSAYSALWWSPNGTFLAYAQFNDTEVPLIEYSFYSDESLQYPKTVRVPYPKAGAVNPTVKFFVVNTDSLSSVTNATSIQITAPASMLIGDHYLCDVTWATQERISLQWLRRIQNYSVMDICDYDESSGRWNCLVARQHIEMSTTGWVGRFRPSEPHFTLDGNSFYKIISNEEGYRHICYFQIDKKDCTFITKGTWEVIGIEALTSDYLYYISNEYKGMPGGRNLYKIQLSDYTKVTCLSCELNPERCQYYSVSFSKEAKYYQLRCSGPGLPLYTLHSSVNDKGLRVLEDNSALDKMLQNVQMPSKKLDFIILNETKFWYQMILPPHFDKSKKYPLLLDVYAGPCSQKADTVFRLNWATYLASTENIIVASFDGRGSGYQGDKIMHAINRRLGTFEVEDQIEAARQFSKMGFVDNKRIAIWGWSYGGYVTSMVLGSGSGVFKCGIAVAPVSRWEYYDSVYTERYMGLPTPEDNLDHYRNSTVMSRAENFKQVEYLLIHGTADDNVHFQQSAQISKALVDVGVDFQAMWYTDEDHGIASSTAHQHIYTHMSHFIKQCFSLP
Type: biochemical
Text: Dipeptidyl Peptidase-IV (DPP-IV), known as serine protease, was obtained by a modification of the known method (Tanaka T. et al, Proc. Natl. Acad. Sci. USA, (1994) 91, 3082-3086), which comprises cloning, purification by use of Baculo-Virus and activation steps. DPP-IV was used to test the pharmaceutical efficacy of candidate inhibitors as follows. The cloned DP-IV was expressed in Baculo-Virus, which was purified by nickel column and then subjected to dialysis. The inhibitors synthesized in Examples were tested to determine the binding activity there of using a fluorescent substrate, Ac-Gly-Pro-AFC. Enzyme reactions were conducted for various concentrations of inhibitors, using 100 µM Ac-Gly-Pro-AFC at 25° C. in a buffer solution containing 50 mmol HEPES (pH 7.4), with the concentration of DP-IV being 7.1 nM. […] As the fluorescent spectrometer, Spectra MAX GeminiXS fluorescent spectrometer from Molecular Device Co. was used and the excitation frequency and emission frequency were set to 400 nm and 505 nm, respectively.

IC50 [nM]	Structure (SMILES)
279	C[C@@H]1CCC(=O)N(C[C@@H](N)CC(=O)N2CCc3sc(C4CCOCC4)nc3C2)C1 [Ex. 47, (5R)-1-{(2S)-2-amino-4-oxo-4-[2-(tetrahydro-2H-pyran-4-yl)-6,7-dihydro[1,3]thiazolo[4,5,c]pyridin-5(4H)-yl]butyl}-5-methylpiperidin-2-one]
13	N[C@@H](CC(=O)N1CCc2c(nc(C3CCC3)nc2C(F)(F)F)C1)CN1CC(F)(F)CCC1=O [Ex. 113, 1-{(2S)-2-amino-4-[2-cyclobutyl-4-(trifluoromethyl)-5,8-dihydropyrido[3,4-d]pyrimidin-7(6H)-yl]-4-oxobutyl}-5,5-difluoropiperidin-2-one]
110	CC1=CC(=O)N(C[C@@H](N)CC(=O)N2CCc3c(nc(-c4ccoc4)nc3C(F)(F)F)C2)C1 [Ex. 104, 1-{(2S)-2-amino-4-[2-(3-furyl)-4-(trifluoromethyl)-5,8-dihydropyrido[3,4-d]pyrimidin-7(6H)-yl]-4-oxobutyl}-4-methyl-1,5-dihydro-2H-pyrrol-2-one]
21	C[C@@H]1CCC(=O)N(C[C@@H](N)CC(=O)N2CCc3c(nc(CF)nc3C(F)(F)F)C2)C1 [Ex. 101, (5R)-1-{(2S)-2-amino-4-[2-(fluoromethyl)-4-(trifluoromethyl)-5,8-dihydropyrido[3,4-d]pyrimidin-7(6H)-yl]-4-oxobutyl}-5-methylpiperidin-2-one]
357	C[C@H]1CN(C[C@@H](N)CC(=O)N2CCc3sc(C4CCOCC4)nc3C2)C(=O)CO1 [Ex. 48, (6S)-4-{(2R)-2-amino-4-oxo-4-[2-(tetrahydro-2H-pyran-4-yl)-6,7-dihydro[1,3]thiazolo[4,5,c]pyridin-5(4H)-yl]butyl}-6-methylmorpholine-3-one]
22	C[C@H]1CN(C[C@@H](N)CC(=O)N2CCc3sc(-c4ccc(F)cc4)nc3C2)C(=O)CO1 [Ex. 45, (6S)-4-{(2S)-2-amino-4-oxo-4-[2-(4-fluorophenyl)6,7-dihydro[1,3]thiazolo[4,5,c]pyridin-5(4H)-yl]butyl}-6-methylmorpholine-3-one]
13	CCc1nc2c(c(C(F)(F)F)n1)CCN(C(=O)C[C@H](N)CN1C[C@H](C)CCC1=O)C2 [Ex. 95, (5R)-1-{(2S)-2-amino-4-[2-ethyl-4-(trifluoromethyl)-5,8-dihydropyrido[3,4-d]pyrimidin-7(6H)-yl]-4-oxobutyl}-5-methylpiperidin-2-one]
70	CC1CCN(C[C@@H](N)CC(=O)N2CCc3c(nc(-c4ccoc4)nc3C(F)(F)F)C2)C(=O)C1 (stereo partly drawn) [Ex. 111, 1-{(2S)-2-amino-4-[2-(3-furyl)-4-(trifluoromethyl)-5,8-dihydropyrido[3,4-d]pyrimidin-7(6H)-yl]-4-oxobutyl}-4-methylpiperidin-2-one]
816	CC1CC(=O)N(C[C@@H](N)CC(=O)N2CCc3ccccc3C2)C1 (stereo partly drawn) [Ex. 18, 1-[2S-amino-4-(3,4-dihydro-1H-isoquinolin-2-yl)-4-oxo-butyl]-4-methyl-pyrrolidin-2-one]
66	N[C@@H](CC(=O)N1CCc2c(nc(-c3ccccc3)nc2C(F)(F)F)C1)CN1CC(F)(F)CCC1=O [Ex. 24, 1-{(2S)-2-amino-4-oxo-4-[2-phenyl-4-(trifluoromethyl)-5,8-dihydropyrido[3,4-d]pyrimidin-7(6H)-yl]butyl}-5,5-difluoropiperidin-2-one]
8	C[C@@H]1CCC(=O)N(C[C@@H](N)CC(=O)N2CCc3c(nc(-c4cccnc4)nc3C(F)(F)F)C2)C1 [Ex. 70, (5R)-1-{(2S)-2-amino-4-oxo-4-[2-pyridin-3-yl-4-(trifluoromethyl)-5,8-dihydropyrido[3,4-d]pyrimidin-7(6H)-yl]butyl}-5-methylpiperidin-2-one]
26	COCCc1nc2c(c(C(F)(F)F)n1)CCN(C(=O)C[C@H](N)CN1CC(F)(F)CCC1=O)C2 [Ex. 53, 1-{(2S)-2-amino-4-[2-(2-methoxyethyl)-4-(trifluoromethyl)-5,8-dihydropyrido[3,4-d]pyrimidin-7(6H)-yl]-4-oxobutyl}-5,5-difluoropiperidin-2-one]
5	N[C@@H](CC(=O)N1CCc2c(nc(-c3cccnc3)nc2C(F)(F)F)C1)CN1CC(F)(F)CCC1=O [Ex. 71, 1-{(2S)-2-amino-4-oxo-4-[2-pyridin-3-yl-4-(trifluoromethyl)-5,8-dihydropyrido[3,4-d]pyrimidin-7(6H)-yl]butyl}-5,5-difluoropiperidin-2-one]
989	N[C@@H](CC(=O)N1CCn2c(nnc2C(F)(F)F)C1)CN1CCCC1=O [Ex. 6, 1-[2S-amino-4-oxo-4-(3-trifluoromethyl-5,6-dihydro-8H-[1,2,4]triazolo[4,3-a]pyrazin-7-yl)-butyl]-pyrrolidin-2-one]
199	N[C@@H](CC(=O)N1CCc2c(nc(-c3cccc(F)c3)nc2C(F)(F)F)C1)CN1CC(F)(F)CCC1=O [Ex. 32, 1-{(2S)-2-amino-4-[2-(3-fluorophenyl)-4-(trifluoromethyl)-5,8-dihydropyrido[3,4-d]pyrimidin-7(6H)-yl]-4-oxobutyl}-5,5-difluoropiperidin-2-one]
13	C[C@@H]1CCC(=O)N(C[C@@H](N)CC(=O)N2CCc3sc(-c4ccc(F)cc4)nc3C2)C1 [Ex. 44, (5R)-1-{(2S)-2-amino-4-[2-(4-fluorophenyl)-6,7-dihydro[1,3]thiazolo[4,5,c]pyridin-5(4H)-yl]-4-oxobutyl}-5-methylpiperidin-2-one]
68	N[C@@H](CC(=O)N1CCc2c(nc(C(F)(F)C(F)(F)F)nc2C(F)(F)F)C1)CN1CC(F)(F)CCC1=O [Ex. 98, 1-{(2S)-2-amino-4-oxo-4-[2-(pentafluoroethyl)-4-(trifluoromethyl)-5,8-dihydropyrido[3,4-d]pyrimidin-7(6H)-yl]butyl}-5,5-difluoropiperidin-2-one]
30	N[C@@H](CC(=O)N1CCc2c(nc(C3CCCC3)nc2C(F)(F)F)C1)CN1CC(F)(F)CCC1=O [Ex. 40, 1-{(2S)-2-amino-4-[2-cyclopentyl-4-(trifluoromethyl)-5,8-dihydropyrido[3,4-d]pyrimidin-7(6H)-yl]-4-oxobutyl}-5,5-difluoropiperidin-2-one]
10	Cc1nc2c(c(C(F)(F)F)n1)CCN(C(=O)C[C@H](N)CN1C[C@H](C)CCC1=O)C2 [Ex. 81, (5R)-1-{(2S)-2-amino-4-[2-methyl-4-(trifluoromethyl)-5,8-dihydropyrido[3,4-d]pyrimidin-7(6H)-yl]-4-oxobutyl}-5-methylpiperidin-2-one]
29	N[C@@H](CC(=O)N1CCc2c(ncnc2C(F)(F)F)C1)CN1CC(F)(F)CCC1=O [Ex. 87, 1-{(2S)-2-amino-4-oxo-4-[4-(trifluoromethyl)-5,8-dihydropyrido[3,4-d]pyrimidin-7(6H)-yl]butyl}-5,5-difluoropiperidin-2-one]
20	N[C@@H](CC(=O)N1CCc2c(nc(CC3CC3)nc2C(F)(F)F)C1)CN1CC(F)(F)CCC1=O [Ex. 55, 1-{(2S)-2-amino-4-[2-(cyclopropylmethyl)-4-(trifluoromethyl)-5,8-dihydropyrido[3,4-d]pyrimidin-7(6H)-yl]-4-oxobutyl}-5,5-difluoropiperidin-2-one]
72	C[C@@H]1CCC(=O)N(C[C@@H](N)CC(=O)N2CCc3c(nc(-c4ccc[nH]4)nc3C(F)(F)F)C2)C1 [Ex. 68, (5R)-1-{(2S)-2-amino-4-oxo-4-[2-(1H-pyrrol-2-yl)-4-(trifluoromethyl)-5,8-dihydropyrido[3,4-d]pyrimidin-7(6H)-yl]butyl}-5-methylpiperidin-2-one]
217	N[C@@H](CC(=O)N1CCn2c(nnc2C(F)(F)F)C1)CN1CCC(C(F)(F)F)CC1=O (stereo partly drawn) [Ex. 14, 1-[2S-amino-4-oxo-4-(3-trifluoromethyl-5,6-dihydro-8H-[1,2,4]triazolo[4,3-a]pyrazin-7-yl)-butyl]-4-trifluoromethyl-piperidin-2-one]
356	C[C@H]1CN(C[C@@H](N)CC(=O)N2CCn3c(nnc3C(F)(F)C(F)(F)F)C2)C(=O)CO1 [Ex. 90, (6S)-4-{(2S)-2-amino-4-oxo-4-[3-(pentafluoroethyl)-5,6-dihydro[1,2,4]triazolo[4,3-a]pyrazin-7(8H)-yl]butyl}-6-methylmorpholine-3-one]
127	CC1CC(=O)N(C[C@@H](N)CC(=O)N2CCn3c(nnc3C(F)(F)F)C2)C1 (stereo partly drawn) [Ex. 4, 1-[2S-amino-4-oxo-4-(3-trifluoromethyl-5,6-dihydro-8H-[1,2,4]triazolo[4,3-a]pyrazin-7-yl)-butyl]-4-methyl-pyrrolidin-2-one]
4150	CC1CCN(C[C@@H](N)CC(=O)N2CCn3c(nnc3C(F)(F)F)C2)C1=O (stereo partly drawn) [Ex. 8, 1-[2S-amino-4-oxo-4-(3-trifluoromethyl-5,6-dihydro-8H-[1,2,4]triazolo[4,3-a]pyrazin-7-yl)-butyl]-3-methyl-pyrrolidin-2-one]
14	C[C@@H]1CCC(=O)N(C[C@@H](N)CC(=O)N2CCc3sc(-c4ccc(C(F)(F)F)cc4)nc3C2)C1 [Ex. 41, (5R)-1-[(2S)-2-amino-4-oxo-4-{2-[4-(trifluoromethyl)phenyl]-6,7-dihydro[1,3]thiazolo[4,5,c]pyridin-5(4H)-yl}butyl]-5-methylpiperidin-2-one]
33	C[C@H]1CN(C[C@@H](N)CC(=O)N2CCc3c(nc(-c4ccc(F)c(F)c4)nc3C(F)(F)F)C2)C(=O)CO1 [Ex. 36]
8850	C[C@H]1CCC(=O)N(C[C@@H](N)CC(=O)N2CCc3c(nc(C(F)(F)F)nc3C(F)(F)F)C2)C1 [Ex. 80]
